# Measured values reported in ChEMBL document CHEMBL3244037, “6-Aryl-4H-s-triazolo[4,3-a][1,4]benzodiazepines. Influence of 1-substitution on pharmacological activity” (J Med Chem, 1979).
# Legend:
# Mus musculus [1] = assay: […] activity in ip dosed albino CF1 mouse assessed as potentiation of gamma-butyrolactone-induced sleep; assay type: functional
# Mus musculus [2] = assay: Potentiation of yohimbine toxicity in ip dosed aggregated albino CF1 mouse; assay type: organism-based
# Mus musculus [3] = assay: Anticonvulsant activity in ip dosed albino CF1 mouse assessed as inhibition of bicucullin-induced tonic extensor convulsions; assay type: functional
# Mus musculus [4] = assay: Potentiation of apomorphine-induced gnawing in ip dosed albino CF1 mouse; assay type: organism-based
# Mus musculus [5] = assay: Hypothermic activity in ip dosed albino CF1 mouse assessed as effect on body temperature measured after 45 mins; assay type: functional; conditions: 0.75 h
# Mus musculus [6] = assay: Inhibition of apomorphine-induced cage climbing in ip dosed albino CF1 mouse compound administered prior to challenge measured for 5 mins after 5 mins of challenge; assay type: functional
# Mus musculus [7] = assay: Inhibition of oxotremorine-induced hypothermia in ip dosed albino CF1 mouse; assay type: functional
# Mus musculus [8] = assay: Reduction of hypoxic stress in ip dosed albino CF1 mouse assessed as prolongation of hypoxic survival time; assay type: functional
# Mus musculus [9] = assay: Anticonvulsant activity in ip dosed albino CF1 mouse assessed as protection against pentylenetetrazole-induced clonic convulsions; assay type: functional
# Mus musculus [10] = assay: Inhibition of amphetamine aggregation toxicity in ip dosed albino CF1 mouse compound administered 1 hr prior to challenge measured after 2 hrs; assay type: functional
Compound,ED50 (Mus musculus [1]) [mg/kg],ED50 (Mus musculus [2]) [mg/kg],ED50 (Mus musculus [3]) [mg/kg],ED50 (Mus musculus [4]) [mg/kg],ED50 (Mus musculus [5]) [mg/kg],ED50 (Mus musculus [6]) [mg/kg],ED50 (Mus musculus [7]) [mg/kg],ED50 (Mus musculus [8]) [mg/kg],ED50 (Mus musculus [9]) [mg/kg],ED50 (Mus musculus [10]) [mg/kg]
Clc1ccccc1C1=NCc2nnc(Br)n2-c2ccccc21,6.2,> 50,25,> 50,> 50,> 50,> 50,8.8,10.5,> 50
CN1CCN(c2nnc3n2-c2ccc(Br)cc2C(c2ccccn2)=NC3)CC1,3.1,35.4,8.8,3.7,> 50,> 50,> 50,21,12.5,> 50
CN(C)CCCN1c2ccccc2CCc2ccccc21.Cl [IMIPRAMINE HYDROCHLORIDE],18,4,21,1,> 50,,1,,,> 50
CN(C)C(=O)Cc1nnc2n1-c1ccc(Cl)cc1C(c1ccccc1)=NC2,10,> 50,40,> 50,> 50,> 50,> 50,> 50,5.6,> 50
Cc1nnc2n1-c1ccc(Br)cc1C(c1ccccc1)=NC2,0.8,> 50,0.5,> 50,20,20,> 50,2,0.6,> 50
Clc1ccc2c(c1)C(c1ccccc1)=NCc1nnc(C(Cl)Cl)n1-2,3,> 50,10,> 50,> 50,> 50,> 50,> 50,8,> 50
Clc1ccc2c(c1)C(c1ccccc1)=NCc1nnc(N3CCOCC3)n1-2,4.4,> 50,3.1,35.4,7,40,35.4,> 50,2.6,> 50
FC(F)(F)c1nnc2n1-c1ccc(Cl)cc1C(c1ccccc1)=NC2,> 50,> 50,> 50,> 50,> 50,> 50,> 50,> 50,20,> 50
COCc1nnc2n1-c1ccc(Cl)cc1C(c1ccccc1)=NC2,2,> 50,0.6,> 50,30,> 50,> 50,20,2,> 50
c1ccc(C2=NCc3nnc(N4CCOCC4)n3-c3ccccc32)cc1,20,> 50,> 50,> 50,> 50,> 50,> 50,> 50,9,> 50
CN1CCN(c2nnc3n2-c2ccccc2C(c2ccccc2)=NC3)CC1,> 50,> 50,> 50,> 50,12.5,25,35.4,> 50,14.9,> 50
CC1=NC(c2ccccc2)c2cc(Cl)ccc2-n2c1nnc2N1CCOCC1 (centres undefined),> 50,> 50,> 50,> 50,> 50,> 50,> 50,,> 50,> 50
Clc1ccc2c(c1)C(c1ccccc1Cl)=NCc1nnc(N3CCOCC3)n1-2,0.04,> 50,0.05,> 50,6,> 50,> 50,0.06,0.06,> 50
Cc1nnc2n1-c1ccc(Br)cc1C(c1ccccn1)=NC2,0.035,> 50,0.24,> 50,,,> 50,,0.12,
CC1N=C(c2ccccc2)c2cc(Cl)ccc2-n2cnnc21 (centres undefined),0.6,> 50,4.4,> 50,10.5,> 50,7.4,42,3.7,> 50
N#CCc1nnc2n1-c1ccc(Cl)cc1C(c1ccccc1)=NC2,0.07,> 50,0.2,> 50,> 50,40,> 50,2,0.63,> 50

Compound,ED50 (Mus musculus [1]) [mg/kg],ED50 (Mus musculus [2]) [mg/kg],ED50 (Mus musculus [3]) [mg/kg],ED50 (Mus musculus [4]) [mg/kg],ED50 (Mus musculus [5]) [mg/kg],ED50 (Mus musculus [6]) [mg/kg],ED50 (Mus musculus [7]) [mg/kg],ED50 (Mus musculus [8]) [mg/kg],ED50 (Mus musculus [9]) [mg/kg],ED50 (Mus musculus [10]) [mg/kg]
CN(C)CCOc1nnc2n1-c1ccc(Cl)cc1C(c1ccccc1)=NC2,0.2,> 50,1.1,> 50,> 50,> 50,25,0.8,2.2,> 50
Brc1ccc2c(c1)C(c1ccccn1)=NCc1nncn1-2,0.04,42,0.4,> 50,> 50,> 50,> 50,0.2,0.3,> 50
CCOCc1nnc2n1-c1ccc(Cl)cc1C(c1ccccc1)=NC2,0.9,> 50,3,> 50,40,> 50,> 50,10,1.4,> 50
CN(C)c1nnc2n1-c1ccc(Cl)cc1C(c1ccccc1)=NC2,0.3,> 50,1.1,> 50,> 50,> 50,21,9,0.9,> 50
CN(C)CCCN1c2ccccc2Sc2ccc(Cl)cc21 [CHLORPROMAZINE],0.5,,50,1,1,1,0.9,> 50,> 50,1
N#Cc1nnc2n1-c1ccc(Cl)cc1C(c1ccccc1)=NC2,4,> 50,3,> 50,10,> 50,> 50,> 50,,> 50
CSc1nnc2n1-c1ccc(Cl)cc1C(c1ccccc1)=NC2,0.8,> 50,10,> 50,10,> 50,> 50,10,8,> 50
CCN(CC)CCOc1nnc2n1-c1ccc(Cl)cc1C(c1ccccc1)=NC2,2.2,42,12.5,> 50,> 50,> 50,> 50,40,8.8,> 50
OCCN1CCN(c2nnc3n2-c2ccccc2C(c2ccccc2Cl)=NC3)CC1,3,30,6,> 50,2,> 50,40,0.9,3,> 50
OCCN1CCN(c2nnc3n2-c2ccc(Cl)cc2C(c2ccccc2)=NC3)CC1,1.6,> 50,8.8,25,> 50,> 50,> 50,> 50,42,> 50
Clc1ccc2c(c1)C(c1ccccc1)=NCc1nnc(N3CCCC3)n1-2,3,> 50,4,> 50,40,> 50,30,> 50,4.5,> 50
OCc1nnc2n1-c1ccc(Cl)cc1C(c1ccccc1Cl)=NC2,0.01,> 50,0.02,> 50,7,> 50,> 50,0.06,0.045,> 50
CN1CCN(c2nnc3n2-c2ccc(Cl)cc2C(c2ccccc2)=NC3)CC1,0.7,> 50,10.5,17.7,> 50,> 50,7.4,> 50,1.6,> 50
CN(C)CCN(C)c1nnc2n1-c1ccc(Cl)cc1C(c1ccccc1)=NC2,12.5,> 50,42,> 50,40,> 50,> 50,> 50,30,> 50
CC1=NC(c2ccccc2)c2cc(Cl)ccc2-n2c1nnc2N1CCN(C)CC1 (centres undefined),> 50,> 50,> 50,> 50,> 50,> 50,40,,> 50,> 50
Cc1nnc2n1-c1ccc(Cl)cc1C(c1ccccc1Cl)=NC2 [TRIAZOLAM],,> 50,,> 50,,,> 50,0.07,0.07,
